From patent publication US20240423888A1, “COSMETIC AND/OR DERMATOLOGICAL COMPOSITION COMPRISING AT LEAST ONE MEROCYANINE AND AT LEAST ASCORBIC ACID AND/OR A DERIVATIVE THEREOF” (L'OREAL, priority 2021, published 2024)

System: normal human dermal fibroblasts (NHDF)
Test: Procollagen I assay (ELISA) in culture medium of normal human dermal fibroblasts exposed to UVA, formulas spread on PMMA plates placed over the cells
Format: cell-based
Settings: for Mean procollagen 1 (normalized by Cyquant signal and relative to the unexposed Control): 48 hours after last exposure
Procedure: The efficacy of a combination in accordance with the invention and outside the invention is tested by assaying procollagen 1 in a culture medium of normal human dermal fibroblasts exposed to UVA.
• Normal human dermal fibroblasts (NHDF) obtained from a mammary plasty. • Culture: 37° C., 5% CO2. • Culture medium and test medium: MEM (Gibco 21090-022) containing 10% foetal calf serum (FCS) (Gibco 10270-098), 2 mM L-glutamine (Gibco 25030-024), 1 mM sodium pyruvate (Gibco 11360-039), 1× non-essential amino acids (Gibco 11140-035), 250 ng/ml amphotericin B (Gibco 15290-018) and penicillin/streptomycin 20 U/20 […].
The normal human dermal fibroblasts were seeded in complete MEM medium and incubated for 72 h at 37° C. and 5% CO2.
The cells are then exposed for 3 consecutive days to a dose of 25 J/cm^2 of total UVA using an Oriel solar simulator fitted with a WG335 filter. Depending on the conditions, a PMMA plate to which the formula comprising the screening agents according to the invention or outside the invention or the Placebo formula is applied is placed over the cells during exposure. After each exposure, the cells are treated or not with ascorbic acid (10 μM) diluted in the culture medium. The cells are then incubated at 37° C., 5% CO2. 48 hours after the last exposure, a cell viability test (XTT Roche cat. 11465015001) is performed, and the number of cells in each well is evaluated by means of a Cyquant assay (Molecular Probes C7026). The media are collected and a procollagen I assay is performed by ELISA (Abcam ab210966). Each experimental condition is performed in duplicate or triplicate and at least three independent experiments are performed.

[1] = 25 J/cm^2 total UVA on 3 consecutive days, formula 1.3 mg/cm^2 on PMMA plate over the cells, ascorbic acid 10 μM where given

## O=C1O[C@H]([C@@H](O)CO)C(O)=C1O [VitC, ascorbic acid]
0 J/cm^2 (unexposed), ascorbic acid 10 μM
  relative % relative to the control 0 J: +260.5%
0 J/cm^2 (unexposed), ascorbic acid 10 μM, unexposed Control = 100
  Mean procollagen 1 (normalized by Cyquant signal and relative to the unexposed Control): 360.5
[1]
  relative % relative to the control 0 J: +29.7%
  Mean procollagen 1 (normalized by Cyquant signal and relative to the unexposed Control): 129.7
Ascorbic acid tested at 10 μM, result in words
  secretion of procollagen 1 by the fibroblasts: significantly increased
Effect of UVA, result in words
  ability of ascorbic acid to induce procollagen 1 secretion: significantly reduced
